In patent US20250145596A1, “HETEROCYCLIC GLP-1 AGONISTS” (Gasherbrum Bio, Inc., priority 2022, published 2025):

Biological target: T1, GLP-1 Receptor (Homo sapiens, UniProt P43220)
T1 construct: host or cells: HEK293/CRE-Luc
Assay: GLP-1R agonist cAMP stimulation assay
Assay type: cell-based
Conditions: HEK293/CRE-Luc cell line stably expressing the GLP-1 Receptor; 30 min at 37° C.; cAMP dynamic 2 Kit
Method: Activation of GLP-1 receptor is known to stimulate cyclic AMP (cAMP) production in cells which indicates primary coupling to the Gas subunit of the G protein heterotrimeric complex.
To optimize functional activity directed toward Gas coupling, a HEK293/CRE-Luc cell line developed by HDB stably expressing the GLP-1 Receptor was used. 200× concentration of compound working solutions were prepared (Agilent Technologies Bravo) with ½ log serial dilution in 384-well Echo LDV plate (Labcyte, Cat #LP-0200). 50 nL/well 200× concentration of compound working solutions were moved to 384-well white low volume plate (Greiner, Cat #784075) using Labcyte ECHO550. 1×10^5 cells/mL HEK293/GLPlR/CRE-LUC (HD Biosciences) cell suspensions prepared with assay buffer [DPBS containing 0.5 mM IBMX (Sigma, Cat #15879) and 0.1% BSA (GENVIEW, Cat #FA016-100g)], 10 μL cell suspensions were added to each well of previous generated assay plate which already contains 50 nL compound at 200× concentration using ThermoFisher Multidrop Combi (1000 cells/well). Seal the plate and incubate at 37° C. with 5% CO2 for 30 min.
After incubation the cAMP assay signal was generated using cAMP dynamic 2 Kit (Cisbio). 5 μL cAMP-d2 working solution was added to each well, followed with 5 μL Anti-cAMP antibody-cryptate working solution added to each well using ThermoFisher Multidrop Combi. Incubate at room temperature for 1 hour protected from light. Read the fluorescence at 665 and 615 nm with Reader PerkinElmer EnVision.
% Activity=100%×(mean RLU of test sample mean RLU of vehicle control)/(mean RLU of MAX control−mean RLU of vehicle control))

T1 sequence (P43220 24-463): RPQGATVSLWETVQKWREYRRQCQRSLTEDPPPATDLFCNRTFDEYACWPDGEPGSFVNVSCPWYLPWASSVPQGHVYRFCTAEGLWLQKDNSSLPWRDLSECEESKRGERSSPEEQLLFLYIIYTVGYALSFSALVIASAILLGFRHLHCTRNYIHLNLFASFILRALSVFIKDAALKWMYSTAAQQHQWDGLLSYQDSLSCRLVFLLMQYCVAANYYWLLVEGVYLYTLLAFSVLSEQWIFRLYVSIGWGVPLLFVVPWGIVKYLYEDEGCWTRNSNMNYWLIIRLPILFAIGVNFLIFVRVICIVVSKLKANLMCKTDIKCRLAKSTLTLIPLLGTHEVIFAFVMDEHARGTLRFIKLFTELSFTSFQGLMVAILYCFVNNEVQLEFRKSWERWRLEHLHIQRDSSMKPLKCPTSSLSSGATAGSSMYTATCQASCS

Structure (SMILES): CC1(c2ccc(Cl)cc2F)Oc2ccc(F)c(C3CCN(Cc4ncc(-c5nnc(C(F)(F)F)[nH]5)cc4CC4(C#N)CC4)CC3)c2O1 (centres unmarked) [Example 15, 1-{[2-({4-[2-(4-Chloro-2-fluorophenyl)-5-fluoro-2-methyl-2H-1,3-benzodioxol-4-yl]piperidin-1-yl}methyl)-5-[5-(trifluoromethyl)-4H-1,2,4-triazol-3-yl]pyridin-3-yl]methyl}cyclopropane-1-carbonitrile]
- EC50: < 1 nM

Structure (SMILES): C[C@]1(c2ccc(Cl)cc2F)Oc2cccc(C3CCN(Cc4ncc(-c5nnc(C(F)F)[nH]5)cc4CC4(C#N)CC4)CC3)c2O1 [Example 17, 1-{[2-({4-[(2S)-2-(4-chloro-2-fluorophenyl)-2-methyl-2H-1,3-benzodioxol-4-yl]piperidin-1-yl}methyl)-5-[5-(difluoromethyl)-4H-1,2,4-triazol-3-yl]pyridin-3-yl]methyl}cyclopropane-1-carbonitrile]
- EC50: < 1 nM

Structure (SMILES): C[C@]1(c2ccc(Cl)cc2F)Oc2cccc(C3CCN(Cc4ncc(-c5nnc(C#N)[nH]5)cc4CC4(C#N)CC4)CC3)c2O1 [Example 18, (S)-5-(6-((4-(2-(4-chloro-2-fluorophenyl)-2-methylbenzo[d][1,3]dioxol-4-yl)piperidin-1-yl)methyl)-5-((1-cyanocyclopropyl)methyl)pyridin-3-yl)-4H-1,2,4-triazole-3-carbonitrile]
- EC50: < 1 nM

Structure (SMILES): C[C@]1(c2ccc(Cl)cc2F)Oc2cccc(C3CCN(Cc4ncc(C(=O)O)cc4CC4(C#N)CC4)CC3)c2O1 [Example 19, (S)-6-((4-(2-(4-chloro-2-fluorophenyl)-2-methylbenzo[d][1,3]dioxol-4-yl)piperidin-1-yl)methyl)-5-((1-cyanocyclopropyl)methyl)nicotinic acid]
- EC50: 1 to 100 nM

Structure (SMILES): C[C@]1(c2ccc(Cl)cc2F)Oc2cccc(C3CCN(Cc4ncc(/C=C/C(=O)O)cc4CC4(C#N)CC4)CC3)c2O1 [Example 20, (S,E)-3-(6-((4-(2-(4-chloro-2-fluorophenyl)-2-methylbenzo[d][1,3]dioxol-4-yl)piperidin-1-yl)methyl)-5-((1-cyanocyclopropyl)methyl)pyridin-3-yl)acrylic acid]
- EC50: < 1 nM

Structure (SMILES): C[C@]1(c2ccc(Cl)cc2F)Oc2cccc(C3CCN(Cc4ncc(CCC(=O)O)cc4CC4(C#N)CC4)CC3)c2O1 [Example 21, (S)-3-(6-((4-(2-(4-chloro-2-fluorophenyl)-2-methylbenzo[d][1,3]dioxol-4-yl)piperidin-1-yl)methyl)-5-((1-cyanocyclopropyl)methyl)pyridin-3-yl)propanoic acid]
- EC50: 1 to 100 nM

Structure (SMILES): CC1(c2ccc(Cl)cc2F)Oc2cccc(C3CCN(Cc4ncc(-c5nnc(C(F)(F)F)[nH]5)cc4CC4(C#N)CC4)CC3(F)F)c2O1 (centres unmarked) [Example 22, 1-{[2-({4-[2-(4-chloro-2-fluorophenyl)-2-methyl-2H-1,3-benzodioxol-4-yl]-3,3-difluoropiperidin-1-yl}methyl)-5-[5-(trifluoromethyl)-4H-1,2,4-triazol-3-yl]pyridin-3-yl]methyl}cyclopropane-1-carbonitrile]
- EC50: < 1 nM

Structure (SMILES): N#CC1(Cc2cc(-c3nnc(C(F)(F)F)[nH]3)cnc2CN2CCC(c3cccc(OCc4ccc(Cl)cc4F)n3)CC2)CC1 [Example 32, 1-({2-[(4-{6-[(4-chloro-2-fluorophenyl)methoxy]pyridin-2-yl}piperidin-1-yl)methyl]-5-[5-(trifluoromethyl)-4H-1,2,4-triazol-3-yl]pyridin-3-yl}methyl)cyclopropane-1-carbonitrile]
- EC50: < 1 nM

Structure (SMILES): N#CC1(Cc2cc(-c3nnc(C(F)(F)F)[nH]3)cnc2CN2CCC(c3ccc(F)c(OCc4ccc(Cl)cc4F)n3)CC2)CC1 [Example 33, 1-((2-((4-(6-((4-chloro-2-fluorobenzyl)oxy)-5-fluoropyridin-2-yl)piperidin-1-yl)methyl)-5-(5-(trifluoromethyl)-4H-1,2,4-triazol-3-yl)pyridin-3-yl)methyl)cyclopropane-1-carbonitrile]
- EC50: < 1 nM

Structure (SMILES): N#CC1(Cc2cc(-c3nnc(C(F)(F)F)[nH]3)cnc2CN2CCC(c3ccnc(OCc4ccc(Cl)cc4F)n3)CC2)CC1 [Example 34, 1-({2-[(4-{2-[(4-chloro-2-fluorophenyl)methoxy]pyrimidin-4-yl}piperidin-1-yl)methyl]-5-[5-(trifluoromethyl)-4H-1,2,4-triazol-3-yl]pyridin-3-yl}methyl)cyclopropane-1-carbonitrile]
- EC50: < 1 nM

Structure (SMILES): N#CC1(Cc2cc(-c3nnc(C(F)(F)F)[nH]3)cnc2CN2CCC(c3nc(OCc4ccc(Cl)cc4F)ncc3F)CC2)CC1 [Example 35, 1-({2-[(4-{2-[(4-chloro-2-fluorophenyl)methoxy]-5-fluoropyrimidin-4-yl}piperidin-1-yl)methyl]-5-[5-(trifluoromethyl)-4H-1,2,4-triazol-3-yl]pyridin-3-yl}methyl)cyclopropane-1-carbonitrile]
- EC50: 1 to 100 nM

Structure (SMILES): N#CC1(Cc2cc(-c3nnc(C(F)(F)F)[nH]3)cnc2CN2CCC(c3ncc(F)c(OCc4ccc(Cl)cc4F)n3)CC2)CC1 [Example 36, 1-((2-((4-(4-((4-chloro-2-fluorobenzyl)oxy)-5-fluoropyrimidin-2-yl)piperidin-1-yl)methyl)-5-(5-(trifluoromethyl)-4H-1,2,4-triazol-3-yl)pyridin-3-yl)methyl)cyclopropane-1-carbonitrile]
- EC50: < 1 nM

Structure (SMILES): N#CC1(Cc2cc(-c3nnc(C(F)(F)F)[nH]3)cnc2CN2CCC(c3cccnc3OCc3ccc(Cl)cc3F)CC2)CC1 [Example 37, 1-({2-[(4-{2-[(4-chloro-2-fluorophenyl)methoxy]pyridin-3-yl}piperidin-1-yl)methyl]-5-[5-(trifluoromethyl)-4H-1,2,4-triazol-3-yl]pyridin-3-yl}methyl)cyclopropane-1-carbonitrile]
- EC50: < 1 nM

Structure (SMILES): N#CC1(Cc2cc(-c3nnc(C(F)(F)F)[nH]3)cnc2CN2CCC(c3cccc4c3OC(c3ccc(Cl)cc3F)CO4)CC2)CC1 (centres unmarked) [Example 38, 1-{[2-({4-[3-(4-chloro-2-fluorophenyl)-2,3-dihydro-1,4-benzodioxin-5-yl]piperidin-1-yl}methyl)-5-[5-(trifluoromethyl)-4H-1,2,4-triazol-3-yl]pyridin-3-yl]methyl}cyclopropane-1-carbonitrile]
- EC50: < 1 nM

Structure (SMILES): N#CC1(Cc2cc(-c3nnc(C(F)(F)F)[nH]3)cnc2CN2CCC(c3cccc4c3OC[C@@H](c3ccc(Cl)cc3)O4)CC2)CC1 [Example 39, 1-{[2-({4-[(2R)-2-(4-chlorophenyl)-2,3-dihydro-1,4-benzodioxin-5-yl]piperidin-1-yl}methyl)-5-[5-(trifluoromethyl)-4H-1,2,4-triazol-3-yl]pyridin-3-yl]methyl}cyclopropane-1-carbonitrile]
- EC50: 1 to 100 nM

Structure (SMILES): N#CC1(Cc2cc(-c3nnc(C(F)(F)F)[nH]3)cnc2CN2CCN(c3ccc(F)c(OCc4ccc(Cl)cc4F)c3)CC2)CC1 [Example 41, 1-({2-[(4-{3-[(4-chloro-2-fluorophenyl)methoxy]-4-fluorophenyl}piperazin-1-yl)methyl]-5-[5-(trifluoromethyl)-4H-1,2,4-triazol-3-yl]pyridin-3-yl}methyl)cyclopropane-1-carbonitrile]
- EC50: < 1 nM

Structure (SMILES): N#CC1(Cc2cc(-c3nnc(C(F)(F)F)[nH]3)cnc2CN2CCN(c3ccc(Cl)c(OCc4ccc(Cl)cc4F)c3)CC2)CC1 [Example 42, 1-({2-[(4-{4-chloro-3-[(4-chloro-2-fluorophenyl)methoxy]phenyl}piperazin-1-yl)methyl]-5-[5-(trifluoromethyl)-4H-1,2,4-triazol-3-yl]pyridin-3-yl}methyl)cyclopropane-1-carbonitrile]
- EC50: 1 to 100 nM

Structure (SMILES): C[C@H]1CN(c2ccc(F)c(OCc3ccc(Cl)cc3F)c2)CCN1Cc1ncc(-c2nnc(C(F)(F)F)[nH]2)cc1CC1(C#N)CC1 [Example 43, 1-[(2-{[(2S)-4-{3-[(4-chloro-2-fluorophenyl)methoxy]-4-fluorophenyl}-2-methylpiperazin-1-yl]methyl}-5-[5-(trifluoromethyl)-4H-1,2,4-triazol-3-yl]pyridin-3-yl)methyl]cyclopropane-1-carbonitrile]
- EC50: < 1 nM

Structure (SMILES): N#CC1(Cc2cc(-c3nnc(C(F)(F)F)[nH]3)cnc2CN2CCN(c3ncc(F)c(OCc4ccc(Cl)cc4F)n3)CC2)CC1 [Example 45, 1-((2-((4-(4-((4-chloro-2-fluorobenzyl)oxy)-5-fluoropyrimidin-2-yl)piperazin-1-yl)methyl)-5-(5-(trifluoromethyl)-4H-1,2,4-triazol-3-yl)pyridin-3-yl)methyl)cyclopropane-1-carbonitrile]
- EC50: 1 to 100 nM

Structure (SMILES): N#CC1(Cc2cc(-c3nnc(C(F)(F)F)[nH]3)cnc2CN2CC=C(c3cccc(OCc4ccc(Cl)cc4F)n3)CC2)CC1 [Example 47, 1-{[2-({6-[(4-chloro-2-fluorophenyl)methoxy]-1′,2′,3′,6′-tetrahydro-[2,4′-bipyridin]-1′-yl}methyl)-5-[5-(trifluoromethyl)-4H-1,2,4-triazol-3-yl]pyridin-3-yl]methyl}cyclopropane-1-carbonitrile]
- EC50: < 1 nM
